From US11076594B2, “Pyrazolone compound or salt thereof, preparation method therefor, herbicide composition and use thereof” (QINGDAO KINGAGROOT CHEMICAL COMPOUNDS CO., LTD., priority 2015, dated 2021)

Key:
Format in all cases: in vivo
Indian mallow = assay: weed control effect in post-emergence stage (Table 1); set-up: key: Level 10: completely dead; Level 9: above 95% growth control rate; Level 8: above 90% growth control rate; Level 7: above 80% growth control rate; Level 6: above 70% growth control rate; Level 5: above 60% growth control rate; Level 4: above 50% growth control rate; Level 3: above 20% growth control rate; Level 2: 5%-20% growth control rate; Level 1: below 5% growth control rate; conditions: post-emergence spray at 4-5 leaf stage, 250 g/ha active ingredient with 450 kg/ha water, rated after 3 weeks in greenhouse
In short: (§1)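 Fresh-weight reduction is recorded three weeks after a sprayer applies the acetone/Tween 80 aqueous compound solution to greenhouse-grown plants at the 4-5 leaf stage.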

bidens bipinnata = assay: as above; set-up: key: Level 10: completely dead; Level 9: above 95% growth control rate; Level 8: above 90% growth control rate; Level 7: above 80% growth control rate; Level 6: above 70% growth control rate; Level 5: above 60% growth control rate; Level 4: above 50% growth control rate; Level 3: above 20% growth control rate; Level 2: 5%-20% growth control rate; Level 1: below 5% growth control rate; conditions: post-emergence spray at 4-5 leaf stage, 250 g/ha active ingredient with 450 kg/ha water, rated after 3 weeks in greenhouse
In short: as §1

crab grass = assay: as above; set-up: key: Level 10: completely dead; Level 9: above 95% growth control rate; Level 8: above 90% growth control rate; Level 7: above 80% growth control rate; Level 6: above 70% growth control rate; Level 5: above 60% growth control rate; Level 4: above 50% growth control rate; Level 3: above 20% growth control rate; Level 2: 5%-20% growth control rate; Level 1: below 5% growth control rate; conditions: post-emergence spray at 4-5 leaf stage, 250 g/ha active ingredient with 450 kg/ha water, rated after 3 weeks in greenhouse
In short: as §1

echinochloa = assay: as above; set-up: key: Level 10: completely dead; Level 9: above 95% growth control rate; Level 8: above 90% growth control rate; Level 7: above 80% growth control rate; Level 6: above 70% growth control rate; Level 5: above 60% growth control rate; Level 4: above 50% growth control rate; Level 3: above 20% growth control rate; Level 2: 5%-20% growth control rate; Level 1: below 5% growth control rate; conditions: post-emergence spray at 4-5 leaf stage, 250 g/ha active ingredient with 450 kg/ha water, rated after 3 weeks in greenhouse
In short: as §1

foxtail = assay: as above; set-up: key: Level 10: completely dead; Level 9: above 95% growth control rate; Level 8: above 90% growth control rate; Level 7: above 80% growth control rate; Level 6: above 70% growth control rate; Level 5: above 60% growth control rate; Level 4: above 50% growth control rate; Level 3: above 20% growth control rate; Level 2: 5%-20% growth control rate; Level 1: below 5% growth control rate; conditions: post-emergence spray at 4-5 leaf stage, 250 g/ha active ingredient with 450 kg/ha water, rated after 3 weeks in greenhouse
In short: as §1

rorippa indica = assay: as above; set-up: key: Level 10: completely dead; Level 9: above 95% growth control rate; Level 8: above 90% growth control rate; Level 7: above 80% growth control rate; Level 6: above 70% growth control rate; Level 5: above 60% growth control rate; Level 4: above 50% growth control rate; Level 3: above 20% growth control rate; Level 2: 5%-20% growth control rate; Level 1: below 5% growth control rate; conditions: post-emergence spray at 4-5 leaf stage, 250 g/ha active ingredient with 450 kg/ha water, rated after 3 weeks in greenhouse
In short: as §1

wheat [1] = assay: post-emergence stage experiment, crop (Table 1); conditions: post-emergence spray at 4-5 leaf stage, 250 g/ha active ingredient with 450 kg/ha water, rated after 3 weeks in greenhouse
In short: as §1

rice = assay: post-emergence stage experiment, crop (Table 1); conditions: post-emergence spray at 4-5 leaf stage, 250 g/ha active ingredient with 450 kg/ha water, rated after 3 weeks in greenhouse
In short: as §1

wheat [2] = assay: wheat field test, crop selectivity, greenhouse spray at 4 leaf stage; conditions: 250 g/ha of the active substance; 4 weeks after treatment
Description: (§2) The activity level standard of harmful plant destruction (i.e. growth control rate) is as follows:
(§3) The above described growth control rate is fresh weight control rate.
(§4) The seeds of alopecurus japonicas, flixweed, shepherd's purse, corn gromwell, chickweed, beckmannia syzigachne, and annual ryegrass and wheat seeds were put into a plastic pot loaded with soil, and then covered with 0.5-2 cm soil, the seeds were allowed to grow in good greenhouse environment. The test plants were treated at 4 leaf stage 2-3 weeks after sowing. The test compounds of the present invention were dissolved in acetone respectively, then added with methyl oleate emulsion and diluted by certain amount of water to certain concentration. The solution was sprayed to the plant with a sprayer. Then the plants were cultured for 4 weeks in greenhouse.

chickweed = assay: wheat field resistant broadleaf weed control, greenhouse spray at 4 leaf stage; set-up: key: Level 10: completely dead; Level 9: above 95% growth control rate; Level 8: above 90% growth control rate; Level 7: above 80% growth control rate; Level 6: above 70% growth control rate; Level 5: above 60% growth control rate; Level 4: above 50% growth control rate; Level 3: above 20% growth control rate; Level 2: 5%-20% growth control rate; Level 1: below 5% growth control rate; conditions: 250 g/ha of the active substance; 4 weeks after treatment; ALS inhibitor resistant
Description: as §2, §3, §4

corn gromwell = assay: as above; set-up: key: Level 10: completely dead; Level 9: above 95% growth control rate; Level 8: above 90% growth control rate; Level 7: above 80% growth control rate; Level 6: above 70% growth control rate; Level 5: above 60% growth control rate; Level 4: above 50% growth control rate; Level 3: above 20% growth control rate; Level 2: 5%-20% growth control rate; Level 1: below 5% growth control rate; conditions: 250 g/ha of the active substance; 4 weeks after treatment; ALS inhibitor resistant
Description: as §2, §3, §4

flixweed = assay: as above; set-up: key: Level 10: completely dead; Level 9: above 95% growth control rate; Level 8: above 90% growth control rate; Level 7: above 80% growth control rate; Level 6: above 70% growth control rate; Level 5: above 60% growth control rate; Level 4: above 50% growth control rate; Level 3: above 20% growth control rate; Level 2: 5%-20% growth control rate; Level 1: below 5% growth control rate; conditions: 250 g/ha of the active substance; 4 weeks after treatment; ALS inhibitor resistant
Description: as §2, §3, §4

shepherd's purse = assay: as above; set-up: key: Level 10: completely dead; Level 9: above 95% growth control rate; Level 8: above 90% growth control rate; Level 7: above 80% growth control rate; Level 6: above 70% growth control rate; Level 5: above 60% growth control rate; Level 4: above 50% growth control rate; Level 3: above 20% growth control rate; Level 2: 5%-20% growth control rate; Level 1: below 5% growth control rate; conditions: 250 g/ha of the active substance; 4 weeks after treatment; ALS inhibitor resistant
Description: as §2, §3, §4

corn = assay: post-emergence stage experiment, crop (Table 1); conditions: post-emergence spray at 4-5 leaf stage, 250 g/ha active ingredient with 450 kg/ha water, rated after 3 weeks in greenhouse
In short: as §1

SMILES	effect on crop, Wheat (level) (wheat [1])	weed control effect, Indian mallow (level) (Indian mallow)	weed control effect, Bidens bipinnata (level) (bidens bipinnata)	weed control effect, Crab grass (level) (crab grass)	weed control effect, Echinochloa (level) (echinochloa)	weed control effect, Green foxtail (level) (foxtail)	weed control effect, Rorippa indica (level) (rorippa indica)	effect on crop, Rice (level) (rice)	Wheat (activity level, crop damage) (wheat [2])	chickweed weed controlling effect (activity level) (chickweed)	corn gromwell weed controlling effect (activity level) (corn gromwell)	flixweed weed controlling effect (activity level) (flixweed)	shepherd's purse weed controlling effect (activity level) (shepherd's purse)	effect on crop, Corn (level) (corn)
CC(=O)N(CC(F)F)c1c(C(F)(F)F)ccc(C(=O)c2c(C)nn(C)c2O)c1Cl [Compound 005]	0	10	10	2 (Level 2: 5%-20% growth control rate)	10	5 (Level 5: above 60% growth control rate)	10	7 (Level 7: above 80% growth control rate)	0	10	10	10	10	
Cn1cc(C(=O)Oc2c(C(=O)c3ccc(C(F)(F)F)c(N4CCCC4=O)c3Cl)c(C3CC3)nn2C)cn1 [Compound 028]	0	10	7 (Level 7: above 80% growth control rate)	4 (Level 4: above 50% growth control rate)	5 (Level 5: above 60% growth control rate)	1 (Level 1: below 5% growth control rate)	10	1 (Level 1: below 5% growth control rate)	0	10	10	10	10	1 (Level 1: below 5% growth control rate)
Cc1cnn(-c2c(C(F)(F)F)ccc(C(=O)c3c(C4CC4)nn(C)c3OC(=O)c3cn(C)nc3C)c2Cl)c1 [Compound 090]	0	10		1 (Level 1: below 5% growth control rate)	6 (Level 6: above 70% growth control rate)	2 (Level 2: 5%-20% growth control rate)	10	2 (Level 2: 5%-20% growth control rate)	0	10	10	10	10	1 (Level 1: below 5% growth control rate)
CC(C)n1nc(C2CC2)c(C(=O)c2ccc(C(F)(F)F)c(N3CCCCC3=O)c2Cl)c1O [Compound 147]									0	9 (Level 9: above 95% growth control rate)	10	10	10	
O=C(c1ccc(C(F)(F)F)c(N2CCCCC2=O)c1Cl)c1c(C2CC2)nn(C2CC2)c1O [Compound 148]									1 (Level 1: below 5% growth control rate)	10	10	10	10	

Now from value to compound, other results behind:

effect on crop, Wheat (level) (wheat [1])	SMILES	weed control effect, Indian mallow (level) (Indian mallow)	weed control effect, Bidens bipinnata (level) (bidens bipinnata)	weed control effect, Crab grass (level) (crab grass)	weed control effect, Echinochloa (level) (echinochloa)	weed control effect, Green foxtail (level) (foxtail)	weed control effect, Rorippa indica (level) (rorippa indica)	effect on crop, Rice (level) (rice)	Wheat (activity level, crop damage) (wheat [2])	chickweed weed controlling effect (activity level) (chickweed)	corn gromwell weed controlling effect (activity level) (corn gromwell)	flixweed weed controlling effect (activity level) (flixweed)	shepherd's purse weed controlling effect (activity level) (shepherd's purse)	effect on crop, Corn (level) (corn)
0	Cc1nn(C)cc1C(=O)Oc1c(C(=O)c2ccc(C(F)(F)F)c(-n3cccn3)c2Cl)cnn1C [Compound 067]	10		7 (Level 7: above 80% growth control rate)	7 (Level 7: above 80% growth control rate)	10	10	3 (Level 3: above 20% growth control rate)	0	10	10	10	10	3 (Level 3: above 20% growth control rate)
0	Cc1nn(C)cc1C(=O)Oc1c(C(=O)c2ccc(C(F)(F)F)c(-n3cccn3)c2Cl)c(C)nn1C [Compound 072]	10		4 (Level 4: above 50% growth control rate)	6 (Level 6: above 70% growth control rate)	10	10	4 (Level 4: above 50% growth control rate)	0	10	10	10	10	3 (Level 3: above 20% growth control rate)
0	Cc1cnn(-c2c(C(F)(F)F)ccc(C(=O)c3c(C)nn(C)c3OC(=O)c3cn(C)nc3C)c2Cl)c1 [Compound 088]	10	4 (Level 4: above 50% growth control rate)	9 (Level 9: above 95% growth control rate)	10	10	10		0	10	10	10	10	0
